Source: PMC11390765 (Cancer Chemotherapy and Pharmacology, 2024)
Where “and” joins values, the source holds several entries; their conditions need not be identical. Identical values can stand only once. Marks after values point to notes of the source that are not given here.

Experiments:
[1] = Plasma pharmacokinetics of capivasertib and its glucuronide metabolite; assay type: in vivo, human
CYP = system: CYP; parameters: method as in unpublished data; conditions: ref unpublished data; cited from earlier work
[2] = Safety and tolerability (adverse events, CTCAE v5.0; full analysis set); assay type: in vivo, human; conditions: period 1, day 1 cycle 1, midazolam only 1 mg, N=21
Experimental: Safety and tolerability were evaluated in terms of AEs, which were classified and graded according to the National Cancer Institute (NCI) Common Terminology Criteria for Adverse Events (CTCAE) v5.0; vital signs; 12-lead electrocardiogram (ECG); and clinical laboratory assessments, including clinical chemistry and hematology parameters, urinalysis, HbA1c levels, and lipid profiles.
Efficacy analyses were also performed on the full analysis set. Summary and/or descriptive statistics were used to analyze baseline demographic, safety, and efficacy data; PFS and DoR were estimated using Kaplan–Meier methodology.

[3] = Midazolam plasma pharmacokinetics with or without capivasertib (part A); conditions: for AUC(0-inf): AUCinf; for tmax: median (range); for half-life: t½λz
[4] = human, plasma, oral, geometric mean (gCV%), day 8 of cycle 1, midazolam 1 mg on 3rd day off capivasertib 400 mg BID, N = 16
[5] = human, plasma, oral, geometric mean (gCV%), day 12 of cycle 1, midazolam 1 mg on 4th day on capivasertib 400 mg BID, N = 15
[6] = human, plasma, po, 1 mg, geometric mean (gCV%), day 1 of cycle 1, midazolam alone, single oral 1 mg, N = 18

SMILES: NC1(C(=O)N[C@@H](CCO[C@@H]2O[C@H](C(=O)O)[C@@H](O)[C@H](O)[C@H]2O)c2ccc(Cl)cc2)CCN(c2ncnc3[nH]ccc23)CC1 [AZ14102143]
- AUCτ ([1]; geometric mean (gCV%), 12-h dosing interval, day 12 of cycle 1, capivasertib 400 mg BID): 68,810 h*ng/mL
- Ctrough cycle 1, day 13 ([1]; geometric mean (gCV%), 12 h post day 12 capivasertib evening dose): 2575 ng/mL and 2575^f (106.9) ng/mL
- Ctrough cycle 1, day 9 ([1]; geometric mean (gCV%), after 3 off-capivasertib-dosing days): 45.22 ng/mL and 45.22^e (242.1) ng/mL
- Cmax ([1]; geometric mean (gCV%), day 12 of cycle 1, 4th day on capivasertib 400 mg BID, with single oral midazolam 1 mg): 11,220 ng/mL
- t½λz ([1]; geometric mean (gCV%), day 12 of cycle 1, capivasertib 400 mg BID): 3.40 h
- tmax ([1]; median (range), day 12 of cycle 1, capivasertib 400 mg BID): 2.03^a (0.6–7.6) h
- CYP inhibition in vitro (CYP): little or no CYP inhibition

SMILES: Cc1ncc2n1-c1ccc(Cl)cc1C(c1ccccc1F)=NC2 [midazolam, reference compound]
- Abdominal pain, any grade [2]: 0 n (%)
- Abdominal pain, grade ≥ 3 [2]: 0 n (%)
- Anemia, any grade [2]: 0 n (%)
- Anemia, grade ≥ 3 [2]: 0 n (%)
- Any AE, any grade [2]: 3 (14.3) n (%)
- Any AE, grade ≥ 3 [2]: 0 n (%)
- Asthenia, any grade [2]: 0 n (%)
- Asthenia, grade ≥ 3 [2]: 0 n (%)
- Blood alkaline phosphatase increased, any grade [2]: 0 n (%)
- Blood alkaline phosphatase increased, grade ≥ 3 [2]: 0 n (%)
- Blood bilirubin increased, any grade [2]: 0 n (%)
- Blood bilirubin increased, grade ≥ 3 [2]: 0 n (%)
- Blood creatinine increased, any grade [2]: 0 n (%)
- Blood creatinine increased, grade ≥ 3 [2]: 0 n (%)
- COVID-19, any grade [2]: 0 n (%)
- COVID-19, grade ≥ 3 [2]: 0 n (%)
- Decreased appetite, any grade [2]: 0 n (%)
- Decreased appetite, grade ≥ 3 [2]: 0 n (%)
- Diarrhea, any grade [2]: 0 n (%)
- Diarrhea, grade ≥ 3 [2]: 0 n (%)
- Fatigue, any grade [2]: 0 n (%)
- Fatigue, grade ≥ 3 [2]: 0 n (%)
- Gamma-glutamyl transferase increased, any grade [2]: 0 n (%)
- Gamma-glutamyl transferase increased, grade ≥ 3 [2]: 0 n (%)
- Hyperglycemia, any grade [2]: 1 (4.8) n (%)
- Hyperglycemia, grade ≥ 3 [2]: 0 n (%)
- Hypoalbuminemia, any grade [2]: 0 n (%)
- Hypoalbuminemia, grade ≥ 3 [2]: 0 n (%)
- Hypokalemia, any grade [2]: 0 n (%)
- Hypokalemia, grade ≥ 3 [2]: 0 n (%)
- Hyponatremia, any grade [2]: 0 n (%)
- Hyponatremia, grade ≥ 3 [2]: 0 n (%)
- Hypotension, any grade [2]: 0 n (%)
- Hypotension, grade ≥ 3 [2]: 0 n (%)
- Large intestinal obstruction, any grade [2]: 0 n (%)
- Large intestinal obstruction, grade ≥ 3 [2]: 0 n (%)
- Lymphocyte count decreased, any grade [2]: 0 n (%)
- Lymphocyte count decreased, grade ≥ 3 [2]: 0 n (%)
- Nausea, any grade [2]: 0 n (%)
- Nausea, grade ≥ 3 [2]: 0 n (%)
- Rash (group term), any grade [2]: 0 n (%)
- Rash (group term), grade ≥ 3 [2]: 0 n (%)
- Sepsis, any grade [2]: 0 n (%)
- Sepsis, grade ≥ 3 [2]: 0 n (%)
- Thrombocytopenia, any grade [2]: 0 n (%)
- Thrombocytopenia, grade ≥ 3 [2]: 0 n (%)
- Ureteric obstruction, any grade [2]: 0 n (%)
- Ureteric obstruction, grade ≥ 3 [2]: 0 n (%)
- Urticaria, any grade [2]: 0 n (%)
- Urticaria, grade ≥ 3 [2]: 0 n (%)
- Cmax ([3]; geometric mean (gCV%), day 1 of cycle 1, midazolam alone, single oral 1 mg, N = 18): 8.55^a (39.6) ng/mL
- AUClast ([3]; geometric mean (gCV%), day 8 of cycle 1, midazolam 1 mg on 3rd day off capivasertib 400 mg BID, N = 16): 24.49^b (45.3) h*ng/mL
- AUC(0-inf) [3, 4]: 28.3 ng·h/mL
- AUC(0-inf) [3, 5]: 39.5 ng·h/mL
- Cmax ([3]; human, plasma, oral, Cmax, geometric mean (gCV%), day 8 of cycle 1, midazolam 1 mg on 3rd day off capivasertib 400 mg BID, N = 16): 9.9 ng/mL
- Cmax ([3]; human, plasma, oral, Cmax, geometric mean (gCV%), day 12 of cycle 1, midazolam 1 mg on 4th day on capivasertib 400 mg BID, N = 15): 9.83 ng/mL
- tmax ([3]; human, plasma, oral, day 8 of cycle 1, midazolam 1 mg on 3rd day off capivasertib 400 mg BID, N = 16): ~30 min
- tmax ([3]; human, plasma, oral, day 12 of cycle 1, midazolam 1 mg on 4th day on capivasertib 400 mg BID, N = 15): ~30 min
- half-life [3, 4]: 511 min
- half-life [3, 5]: 434 min
- AUC(0-t) ([3]; human, plasma, po, 1 mg): 22.4 ng·h/mL
- AUC(0-inf) [3, 6]: 25 ng·h/mL
- tmax ([3]; human, plasma, po, 1 mg, day 1 of cycle 1, midazolam alone, single oral 1 mg, N = 18): ~30 min
- half-life [3, 6]: 434 min
